Data from patent US10023518B2, “Substituted aromatic compounds and related method for the treatment of fibrosis” (PROMETIC BIOSCIENCES INC., priority 2013, dated 2018).
One block for each compound: values may come before it.

Key:
[1] = test system: α-SMA mRNA expression in TGF-β induced NRK-49F cells; test: Inhibition of α-SMA mRNA expression in TGF-β induced NRK-49F cells (quantitative real-time PCR); type: cell-based, rat; settings: TGF-β 10 ng/ml
Experimental: In fibroblast, analysis was undertaken to determine the effect of preferred compounds of the present invention on TGF-β-induced α-SMA (marker of fibrosis) mRNA expression on normal rat kidney fibroblast (NRK-49F). NRK-49F were treated with TGF-β at a concentration of 10 ng/ml and became activated (myofibroblast) and expressed α-SMA. Expression of the profibrotic marker α-SMA was determined by quantitative real-time PCR.

[2] = test system: collagen 1 mRNA expression in TGF-β induced HK-2 cells; test: Inhibition of collagen 1 mRNA expression in TGF-β induced HK-2 epithelial cells (quantitative real-time PCR); type: cell-based, human; settings: TGF-β 10 ng/mL; for expression of collagen in TGF-β-induced HK-2 cells (in words): concentration not given
Experimental: In epithelial cells, analysis was undertaken to determine the effect of compounds of the invention on TGF-β-induced collagen 1 (marker of fibrosis) on human proximal tubule epithelial cells (HK-2). HK-2 cells are immortalized proximal tubule epithelial cells, from human kidney, which were treated with TGF-β at a concentration of 10 ng/mL Expression of the profibrotic marker collagen 1 was determined by quantitative real-time PCR.

[3] = test system: db/db diabetic mouse; test: Glomerular filtration rate in nephrectomised db/db diabetic mouse model of renal fibrosis; type: in vivo; settings: db/db mice, right nephrectomy day 0, GFR on day 119
Experimental: FIG. 1 illustrates the glomerular filtration rate (GFR) function in db/db diabetic mouse compared to C57BL/6 mice (control mice), and in db/db diabetic mouse following oral treatment with Compound 1 at a dose of 10 and 50 mg/kg.
Typical experimental models of kidney fibrosis in mice or rats include db/db nephritic mice (models for diabetic nephropathy) and reflects the nephropathy observed in human. Evaluation of the effect of Compound 1 on diabetic nephropathy was performed in a db/db mouse model. Briefly, total nephrectomy of the right kidney was performed on day 0 and db/db mice (6-week old) were treated with vehicle or Compound 1 (10 and 50 mg/kg, oral once a day) from day 1 and glomerular filtration rate (GFR) was measured on day 119 as a direct measure of kidney function. FIG. 1 illustrates the reduction of GFR in db/db diabetic mouse compared to C57BL/6 mice (control mice), showing clearly the nephropathy associated with diabetes.

melting point: 225 to 230 °C
SMILES: CCCCCc1cc(CCCCC)cc(CC(=O)[O-])c1.[Na+] [Compound 1, Sodium 2-[3,5-Dipentylphenyl]acetate]
α-SMA expression in NRK-49F % of inhibition [mM] ([1]; 0.01 mM compound): 94% [0.01]
Collagen expression in HK-2 cells % of inhibition [mM] ([2]; 0.02 mM compound): 100% [0.02]
expression of collagen in TGF-β-induced HK-2 cells (in words) [2]: inhibits the expression of collagen
glomerular filtration rate (GFR) ([3]; 10 mg/kg oral once a day from day 1): increases the GFR function of the kidney up to normal
glomerular filtration rate (GFR) ([3]; 50 mg/kg oral once a day from day 1): increases the GFR function of the kidney up to normal

SMILES: CCCCCCc1cc(CCCCCC)cc(CC(=O)[O-])c1.[Na+] [Compound 2, Sodium Salt of 2-(3,5-Dihexylphenyl)acetic acid]
α-SMA expression in NRK-49F % of inhibition [mM] ([1]; 0.006 mM compound): 89% [0.006]
Collagen expression in HK-2 cells % of inhibition [mM] ([2]; 0.008 mM compound): 100% [0.008]
expression of collagen in TGF-β-induced HK-2 cells (in words) [2]: inhibits the expression of collagen

SMILES: CCCCCc1cc(CCCCC)c(O)c(CC(=O)[O-])c1.[Na+] [Compound 3, Sodium Salt of 2-(2-Hydroxy-3,5-dipentylphenyl)acetic acid]
α-SMA expression in NRK-49F % of inhibition [mM] ([1]; 0.0125 mM compound): 100% [0.0125]

SMILES: CCCCCc1cc(CC(=O)[O-])cc(CCCCC)c1O.[Na+] [Compound 5, Sodium Salt of 2-(4-Hydroxy-3,5-dipentylphenyl)acetic acid]
α-SMA expression in NRK-49F % of inhibition [mM] ([1]; 0.025 mM compound): 41% [0.025]
